In PMC11729419, “Thiol-Reactive or Redox-Active: Revising a Repurposing Screen Led to a New Invalidation Pipeline and Identified a True Noncovalent Inhibitor Against Papain-like Protease from SARS-CoV-2” (ACS Pharmacology & Translational Science, 2024):

Tests used:
PLpro-NAB [1] = target: T1, PLpro-NAB (Severe acute respiratory syndrome coronavirus 2, UniProt P0DTD1); assay: STD-NMR ligand binding and competition; set-up: species or system SARS-CoV-2; settings: for STD amplification factor AMP: 0.15 mM compound, PLpro/compound 1:100
SARS-CoV-2 PLpro-NAB = SARS-CoV-2 PLpro-NAB (Severe acute respiratory syndrome coronavirus 2, UniProt P0DTD1); assay: biochemical; settings: for HP PLpro-NAB inhibition [%] 20 μM triplicates 1 mM L-cys buffer: hit profiling
PLpro-NAB [2] = target: T1, PLpro-NAB; assay type: binding, SARS-CoV-2; settings: consistent in both DTT and L-Cys buffers
PLpro-NAB C111S = PLpro-NAB C111S (Severe acute respiratory syndrome coronavirus 2, UniProt P0DTD1, C1674S); assay type: binding, SARS-CoV-2

## CCS(=O)(=O)N1CCC([C@@H](C)n2c(C)c(C(=O)NCc3c(OC)cc(C)[nH]c3=O)c3ccccc32)CC1 [CPI-169]
PLpro-NAB [1]
  Competitive STD-NMR with GRL-0617: displacement of CPI-169 from the GRL-0617 binding site
PLpro-NAB [1]; proton H11
  STD amplification factor AMP: 0.74
PLpro-NAB [1]; proton H13
  STD amplification factor AMP: 1.19
PLpro-NAB [1]; proton H23
  STD amplification factor AMP: 0.43
PLpro-NAB [1]; proton H35
  STD amplification factor AMP: 0.89
SARS-CoV-2 PLpro-NAB; 1 mM L-cysteine vs 1 mM DTT
  Inhibition in L-cysteine buffer versus DTT buffer (dose-response): did not show variations in inhibition potency or thermal stability
SARS-CoV-2 PLpro-NAB; 50% inhibition at 20 μM, 1 mM L-cysteine
  Inhibitory activity on retest in 1 mM L-cysteine: retained their inhibitory activity
SARS-CoV-2 PLpro-NAB; hit confirmation, 20 μM, 1 mM DTT buffer, average (SD), 20 μM PR619 = 100%, DMSO = 0%, listed as CPI-169 (FhG)
  HC PLpro-NAB inhibition [%] 20 μM triplicates 1 mM DTT buffer: 99.81 (2.18) %
SARS-CoV-2 PLpro-NAB; hit confirmation, 20 μM, 1 mM DTT buffer, average (SD), 20 μM PR619 = 100%, DMSO = 0%, read-out: HC PLpro-NAB inhibition [%] 20 μM triplicates 1 mM DTT buffer
  inhibition at 20 µM: 96%
SARS-CoV-2 PLpro-NAB; 20 μM, average (SD), 20 μM PR619 = 100%, listed as CPI-169 (EOS)
  HP PLpro-NAB inhibition [%] 20 μM triplicates 1 mM L-cys buffer: 49.41 (2.14) %
SARS-CoV-2 PLpro-NAB; 20 μM, average (SD), 20 μM PR619 = 100%, listed as CPI-169 (FhG)
  HP PLpro-NAB inhibition [%] 20 μM triplicates 1 mM L-cys buffer: 70.67 (1.71) %
PLpro-NAB [2]
  Tm value of PLpro-NAB: concentration-dependent increase in the Tm value
PLpro-NAB C111S
  Tm / stability of PLpro-NAB C111S: increased the Tm
